Legend:
Experiment in all cases: relative viability (nuclei count vs DMSO), 5 days (fraction); higher = more cells survive
Entinostat + Pemetrexed = compound: Nc1ccccc1NC(=O)c1ccc(CNC(=O)OCc2cccnc2)cc1 [Entinostat] + Nc1nc2[nH]cc(CCc3ccc(C(=O)N[C@@H](CCC(=O)O)C(=O)O)cc3)c2c(=O)[nH]1 [Pemetrexed] (partner 0.2 µM)
In short: (§1)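 The day after seeding in 1536-well plates, lung cancer cell lines were treated by pin tool with a single drug, or with a fixed anchor-drug dose together with five library-drug doses (not always all listed) in √10 steps. After 5 days, a combined fix-and-stain solution (final 0.05% Triton X-100, 1% formaldehyde, 1 ug/ml Hoechst) was added. Nuclei counted on 4× images gave relative viability as treated counts over vehicle counts, reported as the median of duplicate plates.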

Entinostat + Decitabine = compound: Nc1ccccc1NC(=O)c1ccc(CNC(=O)OCc2cccnc2)cc1 [Entinostat] + Nc1ncn([C@H]2C[C@H](O)[C@@H](CO)O2)c(=O)n1 [Decitabine] (partner 2 µM)
In short: as §1

SGI-1776 + Navitoclax = compound: CN1CCC(CNc2ccc3ncc(-c4cccc(OC(F)(F)F)c4)n3n2)CC1 [SGI-1776] + CC1(C)CCC(c2ccc(Cl)cc2)=C(CN2CCN(c3ccc(C(=O)NS(=O)(=O)c4ccc(N[C@H](CCN5CCOCC5)CSc5ccccc5)c(S(=O)(=O)C(F)(F)F)c4)cc3)CC2)C1 [Navitoclax] (partner 0.5 µM)
In short: as §1

Entinostat + Linsitinib = compound: Nc1ccccc1NC(=O)c1ccc(CNC(=O)OCc2cccnc2)cc1 [Entinostat] + C[C@]1(O)C[C@@H](c2nc(-c3ccc4ccc(-c5ccccc5)nc4c3)c3c(N)nccn32)C1 [Linsitinib] (partner 1 µM)
In short: as §1

**Q.** For UMC-11, which relative viability (Entinostat + Pemetrexed; first compound 0.02 µM) is on record?
**A.** 0.733

**Q.** And the relative viability (Entinostat + Pemetrexed; first compound 0.06325 µM)?
**A.** 0.738

**Q.** And the relative viability (Entinostat + Pemetrexed; first compound 0.2 µM)?
**A.** 0.5

**Q.** And the relative viability (Entinostat + Pemetrexed; first compound 0.6325 µM)?
**A.** 0.346

**Q.** And the relative viability (Entinostat + Pemetrexed; first compound 2 µM)?
**A.** 0.145

**Q.** What about the relative viability (Entinostat + Decitabine; first compound 0.02 µM) of the same cell line?
**A.** 0.65

**Q.** What about the relative viability (Entinostat + Decitabine; first compound 0.06325 µM) of the same cell line?
**A.** 0.681

**Q.** And the relative viability (Entinostat + Decitabine; first compound 0.2 µM)?
**A.** 0.506

**Q.** What about the relative viability (Entinostat + Decitabine; first compound 0.6325 µM) of the same cell line?
**A.** 0.386

**Q.** What about the relative viability (Entinostat + Decitabine; first compound 2 µM) of the same cell line?
**A.** 0.725

**Q.** What about the relative viability (SGI-1776 + Navitoclax; first compound 0.08 µM) of the same cell line?
**A.** 0.265

**Q.** What about the relative viability (SGI-1776 + Navitoclax; first compound 0.8 µM) of the same cell line?
**A.** 0.32

**Q.** What about the relative viability (SGI-1776 + Navitoclax; first compound 2.53 µM) of the same cell line?
**A.** 0.275

**Q.** And the relative viability (SGI-1776 + Navitoclax; first compound 8 µM)?
**A.** 0.264

**Q.** And the relative viability (Entinostat + Linsitinib; first compound 0.02 µM)?
**A.** 1.11

**Q.** And the relative viability (Entinostat + Linsitinib; first compound 0.06325 µM)?
**A.** 1

**Q.** What about the relative viability (Entinostat + Linsitinib; first compound 0.2 µM) of the same cell line?
**A.** 0.715

**Q.** And the relative viability (Entinostat + Linsitinib; first compound 0.6325 µM)?
**A.** 0.214

**Q.** And the relative viability (Entinostat + Linsitinib; first compound 2 µM)?
**A.** 0.142
